Test results published in patent US5498710A, “Alkyl ether analogues of benzoporphyrin derivatives” (Health Research, Inc., priority 1994, dated 1996).
Entries after “also recorded” stand apart in the source; their conditions may differ.

Legend:
[1] = Electronic absorption, red absorption maximum; assay type: physicochemical; conditions: maximum red absorption peak, Table 3
Experimental: M.p.s were measured on a Thomas/Bristoline microscopic hot stage apparatus and were uncorrected. Silica gel 60 (70-230 and 230-400 mesh, Merck) or neutral alumina (Merck; usually Brockmann Grade III, i. e., deactivated with 6% water) were used for column chromatography. Preparative thin layer chromatography was carried out on 20×20 cm glass plates coated with Merck G 254 silica gel (1 mm thick). Analytical thin layer chromatography (TLC) was performed using merck 60 F254 silica gel (precoated sheets, 0.2 mm thick). Reactions were monitored by TLC and spectrophotometry and were carried out under nitrogen and in the dark. ^1 HNMR spectra were obtained in deuteriochloroform solution at 300 MHz using a General Electric QE300 spectrometer; chemical shifts are expressed in ppm relative to chloroform (7.258 ppm). Elemental analyses were performed at the Midwest Microlab, Ltd., Indiana, USA. Unless stated otherwise, electronic absorption spectra were measured in dichloromethane solution using a Hewlett-Packard 8450A spectrophotometer. Mass spectra were obtained at the Mass Spectrometry Facility, University of California, San Francisco and at the Department of Biophysics, Roswell Park Cancer Institute, Buffalo.

SMT-F tumor [2] = test: In vivo antitumor (photodynamic) activity, SMT-F tumors in DBA/2 mice; parameters: species or system DBA/2 Ha-DD mouse
SMT-F tumor [3] = test: as above; parameters: species or system DBA/2 Ha-DD mouse; remark: listed apart in the source
Experimental: Tumor Response and Foot Response Experiments: For tumor response experiments (see Table 3), a 1mm^3 piece of SMT-F tumor from a donor DBA/2 Ha-DD mouse was implanted subcutaneously with a trocar into the axilla of a 5-7 week old female DBA/2 Ha-DD mouse. When the tumor had grown to about 4mm diameter, mice were injected intravenously (i.v.) with photosensitizers at various doses. At various time after injection, mice were restrained in Plexiglas® holders and each tumor was illuminated with 135 J/cm^2 light from a dye laser 171 (spectra physics). The light dose rate was 75 mW/cm^2 as measured with a PTR Optics […]. The percentage of short term control (non-palpable tumors) was recorded daily. For our study 6 mice/group were used.
In vivo Biological Activity: The in vivo photosensitizing ability of all the sensitizers was compared with that of commercial BPD in DBA/2 mice bearing subcutaneously implanted SMT-F tumors, a method previously described by Dougherty et al. All photosensitizers, including commercial BPD (mixture of 21 and 22) were first dissolved in a minimum quantity of Tween 80 and then diluted with 0.9% saline, to a final concentration of 1% Tween 80.
It can be seen from Table 3 that commercial BPD was quite effective at a dose of 5.0 mg/kg, 3 h post i.v. injection (4 out of six mice were tumor free at day 30). […] However, replacement of the vinyl with a 1-hexyloxyethyl group induced a remarkable difference in photosensitizing activity.

hind foot = test: Foot-response experiments (skin phototoxicity); assay type: in vivo, DBA/2 HaDD mice
Experimental: Foot-response experiments were carried out on 5-7 week old female DBA/2 HaDD mice. Sensitizers were injected i.v. at the following doses: Photofrin® in normal saline, BPD (industrial preparation) in 1% Tween 80; n-hexyl ether derivative 40 in 1% Tween 80. After 1 or 5 days the mice were restrained without anesthesia in aluminum holders and one hind foot of each mouse was illuminated with light from a dye laser 171 (Spectra Physics). Illumination conditions (i.e., light dose, dose rate and wavelength) were as follows: Photofrin®, 5 mg/kg; BPD 5.0 mg/k (3.0 h), n-hexyl ether derivative 40 5.0 mg/kg (24 h) and 1.0 mg/kg (3 h). Light dose was measured with a Coherent 210 power meter and wavelength was measured with a PTR Optics monochromator. Sensitizer does for the foot response experiments corresponded to the lowest dose required to give maximum tumor control measured 7 days after treatment (see Table 3). Foot response was graded daily according to the scale in the legend to FIG. 13. Animals were euthanized immediately after peak foot scores were obtained.

For CCCCCCOC(C)C1=C(C)c2cc3[nH]c(cc4nc(cc5[nH]c(cc1n2)c(C)c5CCC(=O)OC)C(CCC(=O)OC)=C4C)C1(C)C3=CC=C(C(=O)OC)C1C(=O)OC (mixture of isomers) [Compound 40, 8-(1-Hexyloxyethyl)benzoporphyrin Derivative], the absorption maximum wavelength [1] was 676 nm, the “Tumor response (nonpalpable tumor), 1-2 d” value (SMT-F tumor [2]; 5.0 mg/kg i.v., light 24 h after injection, day 1-2) was 6/6 and the “Tumor response (nonpalpable tumor), 7 d” value (SMT-F tumor [2]; 5.0 mg/kg i.v., light 24 h after injection, day 7) was 6/6. For the same compound, the “Tumor response (nonpalpable tumor), 30 d” value (SMT-F tumor [2]; 5.0 mg/kg i.v., light 24 h after injection, day 30) was 5/6, the “tumorcidal / photosensitizing activity” value (SMT-F tumor [2]; 5.0 mg/kg, light 24 h post i.v. injection) was “excellent tumorcidal activity” and the “Tumor response (nonpalpable tumor), 1-2 d” value (SMT-F tumor [3]; 1.0 mg/kg i.v., light 3 h after injection, day 1-2) was 6/6. The “Tumor response (nonpalpable tumor), 7 d” value (SMT-F tumor [3]; 1.0 mg/kg i.v., light 3 h after injection, day 7) was 3/6, the “Tumor response (nonpalpable tumor), 30 d” value (SMT-F tumor [3]; 1.0 mg/kg i.v., light 3 h after injection, day 30) was 3/6 and the “antitumor / photosensitizing activity” value (SMT-F tumor [3]; 1.0 mg/kg, light 3 h post i.v. injection where stated) was “active”. The “in vivo activity versus vinyl or ring B isomer” value (SMT-F tumor [3]; 1.0 mg/kg, trans isomers compared) was “more active than the ring "B" modified isomer 45”, the “in vivo photosensitizing efficacy / antitumor activity compared with BPD” value (SMT-F tumor [3]; mice, compared with BPD (mixture of 21 and 22)) was “significantly more active than the industrially prepared benzoporphyrin derivative; also recorded: better photosensitizing efficacy than benzoporphyrin derivative monocarboxylic acid; also recorded: better anti-tumor activity than BPD-MA” and the “skin phototoxicity compared with Photofrin and BPD” value (hind foot; 1.0 mg/kg, 3 h post injection) was “reduced skin phototoxicity”. The “skin phototoxicity compared with Photofrin and BPD” value (hind foot; 5.0 mg/kg, 24 h post injection) was “reduced skin phototoxicity” and the “skin phototoxicity” value (hind foot; dose not given) was “reduced residual skin phototoxicity compared with Photofrin; also recorded: reduced skin phototoxicity compared with BPD-MA and Photofrin”.
